# Data taken from patent US9073975B2, “Cyclic peptides, their preparation and their use as inhibitors of the platelet adhesion” (SANOFI, priority 2010, dated 2015).
# pIC50: −log10 of the molar value. Like-named read-outs stand apart in the source and are kept apart here. Starred links: 1 amine or outer side, 2 acyl side, 3 side chain; linkers in the order of their positions; H or OH if unused. Positions of bridges follow the written chain, without caps; N, C: chain ends. Non-standard residues stand in square brackets, D forms with d. Residues, ends and D or L forms follow the SMILES beside them. ξ: configuration not given here. X1 = CSCC[C@H](NN[C@@H](CCCNC(=N)N)C(=O)C(=O)[C@H](CCC(=O)O)N[*:2])C(=O)[*:1]; NHCH2(1,3-C6H4)CH2CO = O=C(Cc1cccc(CN[*:1])c1)[*:2]; X3 = O=C(Cc1ccc(CN[*:1])cc1)[*:2]; Cha = N[C@@H](CC1CCCCC1)C(=O)O; Chg = N[C@H](C(=O)O)C1CCCCC1; Nle = CCCC[C@H](N)C(=O)O; Nva = CCC[C@H](N)C(=O)O; Aoc = NCCCCCCCC(=O)O; Ahp = NCCCCCCC(=O)O; Ahx = NCCCCCC(=O)O; ξA = CC(N)C(=O)O
# Molecular target: T1, recombinant human vWF-A1 domain (Homo sapiens, UniProt P07359)
# T1 construct: whole blood drawn from voluntary donors; made in house; host or cells: E. coli (vWF-A1); washed platelets from human donor blood (GPIb, endogenous)
# T1 sequence (P07359 17-652): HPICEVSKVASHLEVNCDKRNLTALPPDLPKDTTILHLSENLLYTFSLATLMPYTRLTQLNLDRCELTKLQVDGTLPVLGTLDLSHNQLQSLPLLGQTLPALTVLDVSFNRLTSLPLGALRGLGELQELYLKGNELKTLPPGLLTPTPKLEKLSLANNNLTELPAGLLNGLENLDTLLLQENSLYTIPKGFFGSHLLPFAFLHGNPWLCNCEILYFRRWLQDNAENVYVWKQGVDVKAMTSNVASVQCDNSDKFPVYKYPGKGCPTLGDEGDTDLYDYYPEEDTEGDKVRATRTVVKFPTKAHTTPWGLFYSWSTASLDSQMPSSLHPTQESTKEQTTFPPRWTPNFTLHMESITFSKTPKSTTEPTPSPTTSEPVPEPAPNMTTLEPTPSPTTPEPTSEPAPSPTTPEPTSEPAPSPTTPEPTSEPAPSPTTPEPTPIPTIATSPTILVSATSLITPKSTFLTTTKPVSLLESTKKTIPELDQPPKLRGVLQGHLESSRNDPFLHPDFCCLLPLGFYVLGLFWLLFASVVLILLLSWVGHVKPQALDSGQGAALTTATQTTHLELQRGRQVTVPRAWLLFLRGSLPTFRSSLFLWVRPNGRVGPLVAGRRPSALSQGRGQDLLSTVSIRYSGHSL
# T1 sequence (P13224 26-206 partner): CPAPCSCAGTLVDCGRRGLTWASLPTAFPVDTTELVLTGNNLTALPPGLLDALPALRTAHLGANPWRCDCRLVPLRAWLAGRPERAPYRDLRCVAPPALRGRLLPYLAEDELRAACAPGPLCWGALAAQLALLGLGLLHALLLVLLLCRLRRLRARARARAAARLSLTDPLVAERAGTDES
# T1 sequence (P14770 17-177 partner): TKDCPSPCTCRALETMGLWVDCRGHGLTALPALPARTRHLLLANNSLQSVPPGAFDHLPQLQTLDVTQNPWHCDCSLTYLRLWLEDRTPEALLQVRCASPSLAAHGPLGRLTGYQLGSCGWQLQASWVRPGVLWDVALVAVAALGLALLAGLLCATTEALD
# Assay: Static human platelet adhesion to recombinant human vWF-A1 domain
# Format: cell-based
# Description: The activity of compounds of the formula I can be shown by procedures known in the art, for example by determining their inhibition of the binding of platelets to vWF A1 domain in an appropriate assay. To this end, assay plates can be coated with vWF-A1 domain. […] Then fluorescence-labeled thrombocytes are added and incubated for 90 minutes. In a complex washing procedure all non-bound thrombocytes are removed and the plates are measured, for example in a laser-based reader Acumen Explorer or a bulk reader like Spectramax. […] To assess the effect of compounds on the interaction of the GPIb complex on platelets with vWF, an assay system was used measuring binding of human platelets to recombinant human vWF-A1 domain under static conditions in the presence and absence of the compounds. […] Platelet rich plasma was carefully removed, transferred to a fresh container and spun down for 15 min at 120 g. Platelet rich plasma was carefully transferred again to fresh containers, PGE1 (0.5 μg/ml, Sigma) was added and the suspension was allowed to rest for 5 min. This was followed by another centrifugation step for 15 min at 360 g. The supernatant was discarded and the cell pellets were carefully resuspended in tyrode buffer (NaCl, 137 mM (Sigma S-3014); KCl, 2.7 mM (Sigma P-9541); NaHCO3,12 mM ([…] 31437); NaH2PO4×2H2O, 0.36 mM (Merck 6345); […] After 5 min of resting the suspension was spun down for 15 min at 300 g. The supernatant was discarded and the pellets were carefully resuspended in TBS buffer (Tris-HCl, 50 mM (Fluka 93371); NaCl, 120 mM (Sigma S-3014); KCl, 2.7 mM (Sigma P-9541); CaCl2, 0.05 mM (Sigma C-3306); MgCl2×6 H2O, 2 mM (Sigma M-2670); […] The platelet count was adjusted to 2×10^5 cells/μl, and the suspensions from individual donors were pooled at this stage. The platelets were allowed to rest for 30 min at room temperature before calcein AM (2.5 μM per 2×10^5 cells/μl (Molecular Probes C-3099)) was added. This was followed by 15 min incubation in the dark. Cells were diluted to 5×10^4 cells/μl and ReoPro (3 μg/ml (Centocor B. V., Leiden, N L)) was added, followed by a 10 min incubation period in the dark before adding the platelets to the assay plates. 96 well plates (Greiner hb, black, clear bottom, F, 655097) were coated with human recombinant vWF-A1 domain (1.5 μg/well, AA 475-706, expressed in E. coli) in Tris buffer (pH 7.4; Tris-HCl, 25 mM; NaCl, 150 mM) and incubated for 1 h at room temperature. After washing the wells 3× with TBS, blocking buffer (TBS with 5% BSA) was added followed by an incubation for 1 h. The wells were washed again 3× with TBS before 200 μl TBS were added to each well, preventing them from drying out. TBS was flicked out and serial dilutions of the test compound were added. The washed and calcein AM labeled thrombocytes were added to the wells (2.5×10^6 cells/well). Following an adhesion period of 1.5 h in the dark the wells were washed 3× with TBS. Measurement of fluorescence per well was performed in a SpectraMax M5 reader (Molecular Devices). From the raw data % inhibition and IC50 values were calculated.
# [1] = washed calcein AM labeled human platelets, static conditions, 1.5 h adhesion, read-out: Activity (IC50 for inhibition of the binding of platelets to vWF A1 domain)
Structure (SMILES),pIC50 [1],pIC50
"CSCC[C@@H]1NN[C@@H](CCCNC(=N)N)C(=O)C(=O)[C@H](CCC(=O)O)NC(=O)[C@H]([C@@H](C)O)NC(=O)CCCCCCNC(=O)[C@H](CC(C)C)NC(=O)[C@H](CC(N)=O)NC(=O)[C@H](Cc2cnc[nH]2)NC(=O)[C@H](CC(C)C)NC(=O)C(C)NC1=O (stereo partly drawn) [Example 1, Cyclo[Leu-His-Asn-Leu-NH—(CH2)6—CO-Thr-Glu-Arg-Met-Ala]] ([ξA]LHNL[Ahp]T; linker N-C via X1)",> 6.00,
"CSCC[C@@H]1NC(=O)[C@H](CCCNC(=N)N)NC(=O)[C@H](CCC(=O)O)NC(=O)[C@H]([C@@H](C)O)NC(=O)Cc2cccc(c2)CNC(=O)[C@H](CC(C)C)NC(=O)[C@H](CC(N)=O)NC(=O)[C@H](Cc2c[nH]cn2)NC(=O)[C@H](CC(C)C)NC(=O)[C@H](C)NC1=O [Example 2, Cyclo[Leu-His-Asn-Leu-NH-X4-X3-X2-X1-CO-Thr-Glu-Arg-Met-Ala]] (cyclo(ALHNL[NHCH2(1,3-C6H4)CH2CO]TERM))",,> 6.00
"CSCC[C@@H]1NC(=O)[C@H](CCCNC(=N)N)NC(=O)[C@H](CCC(=O)O)NC(=O)[C@H]([C@@H](C)O)NC(=O)Cc2ccc(cc2)CNC(=O)[C@H](CC(C)C)NC(=O)[C@H](CC(N)=O)NC(=O)[C@H](Cc2c[nH]cn2)NC(=O)[C@H](CC(C)C)NC(=O)[C@H](C)NC1=O [Example 3, Cyclo[Leu-His-Asn-Leu-NH-X4-X3-X2-X1-CO-Thr-Glu-Arg-Met-Ala]] (cyclo(ALHNL[X3]TERM))",,5.00 to 6.00
"CSCC[C@@H]1NC(=O)[C@H](CCCNC(=N)N)NC(=O)[C@H](CCC(=O)O)NC(=O)[C@H]([C@@H](C)O)NC(=O)[C@@H](NC(C)=O)CCCCNC(=O)[C@H](CC(C)C)NC(=O)[C@H](CC(N)=O)NC(=O)[C@H](Cc2c[nH]cn2)NC(=O)[C@H](CC(C)C)NC(=O)[C@H](C)NC1=O [Example 5, Cyclo[Leu-His-Asn-Leu-NH-X4-X3-X2-X1-CO-Thr-Glu-Arg-Met-Ala]] (Ac-KTERMALHNL; lactam 1-C)",5.00 to 6.00,
"CSCC[C@@H]1NC(=O)[C@H](CCCNC(=N)N)NC(=O)[C@H](CCC(=O)O)NC(=O)[C@H]([C@@H](C)O)NC(=O)CCCCCCCNC(=O)[C@H](CC(C)C)NC(=O)[C@H](CC(N)=O)NC(=O)[C@H](Cc2c[nH]cn2)NC(=O)[C@H](CC(C)C)NC(=O)[C@H](C)NC1=O [Example 6, Cyclo[Leu-His-Asn-Leu-NH—(CH2)7—CO-Thr-Glu-Arg-Met-Ala]] (cyclo(ALHNL[Aoc]TERM))",> 6.00,
"CSCC[C@@H]1NC(=O)[C@H](CCCCN)NC(=O)[C@H](CCC(=O)O)NC(=O)[C@H]([C@@H](C)O)NC(=O)CCCCCCNC(=O)[C@H](CC(C)C)NC(=O)[C@H](CC(N)=O)NC(=O)[C@H](Cc2c[nH]cn2)NC(=O)[C@H](CC(C)C)NC(=O)[C@H](C)NC1=O [Example 7, Cyclo[Leu-His-Asn-Leu-NH—(CH2)6—CO-Thr-Glu-Lys-Met-Ala]] (cyclo(ALHNL[Ahp]TEKM))",5.00 to 6.00,
"CSCC[C@@H]1NC(=O)[C@H](CCCNC(=N)N)NC(=O)[C@H](CCC(=O)O)NC(=O)[C@H](CC(=O)O)NC(=O)CCCCCCNC(=O)[C@H](CC(C)C)NC(=O)[C@H](CC(N)=O)NC(=O)[C@H](Cc2c[nH]cn2)NC(=O)[C@H](CC(C)C)NC(=O)[C@H](C)NC1=O [Example 10, Cyclo[Leu-His-Asn-Leu-NH—(CH2)6—CO-Asp-Glu-Arg-Met-Ala]] (cyclo(ALHNL[Ahp]DERM))",5.00 to 6.00,
"CSCC[C@@H]1NC(=O)[C@H](CCCNC(=N)N)NC(=O)[C@H](CCC(=O)O)NC(=O)[C@H]([C@@H](C)O)NC(=O)CCCCCNC(=O)[C@H](CC(C)C)NC(=O)[C@H](CC(N)=O)NC(=O)[C@H](Cc2c[nH]cn2)NC(=O)[C@H](CC(C)C)NC(=O)[C@H](C)NC1=O [Example 11, Cyclo[Leu-His-Asn-Leu-NH—(CH2)5—CO-Thr-Glu-Arg-Met-Ala]] (cyclo(ALHNL[Ahx]TERM))",5.00 to 6.00,
"CCCC[C@@H]1NC(=O)[C@H](C)NC(=O)[C@H](CCSC)NC(=O)[C@H](CCCNC(=N)N)NC(=O)[C@H](CCC(=O)O)NC(=O)[C@H]([C@@H](C)O)NC(=O)CCCCCCNC(=O)[C@H](CC(C)C)NC(=O)[C@H](CC(N)=O)NC(=O)[C@H](Cc2c[nH]cn2)NC1=O [Example 13, Cyclo[Nle-His-Asn-Leu-NH—(CH2)6—CO-Thr-Glu-Arg-Met-Ala]] (cyclo(A[Nle]HNL[Ahp]TERM))",5.00 to 6.00,
"CC[C@H](C)[C@@H]1NC(=O)[C@H](C)NC(=O)[C@H](CCSC)NC(=O)[C@H](CCCNC(=N)N)NC(=O)[C@H](CCC(=O)O)NC(=O)[C@H]([C@@H](C)O)NC(=O)CCCCCCNC(=O)[C@H](CC(C)C)NC(=O)[C@H](CC(N)=O)NC(=O)[C@H](Cc2c[nH]cn2)NC1=O [Example 14, Cyclo[Ile-His-Asn-Leu-NH—(CH2)6—CO-Thr-Glu-Arg-Met-Ala]] (cyclo(AIHNL[Ahp]TERM))",5.00 to 6.00,
"CSCC[C@@H]1NC(=O)[C@H](CCCNC(=N)N)NC(=O)[C@H](CCC(=O)O)NC(=O)[C@H]([C@@H](C)O)NC(=O)CCCCCCNC(=O)[C@H](CC(C)C)NC(=O)[C@H](CC(N)=O)NC(=O)[C@H](Cc2c[nH]cn2)NC(=O)[C@H](CC2CCCCC2)NC(=O)[C@H](C)NC1=O [Example 16, Cyclo[Cha-His-Asn-Leu-NH—(CH2)6—CO-Thr-Glu-Arg-Met-Ala]] (cyclo([Cha]HNL[Ahp]TERMA))",> 6.00,
"CC(C)C[C@@H]1NC(=O)[C@H](C)NC(=O)[C@H](CC2CCCCC2)NC(=O)[C@H](CCCNC(=N)N)NC(=O)[C@H](CCC(=O)O)NC(=O)[C@H]([C@@H](C)O)NC(=O)CCCCCCNC(=O)[C@H](CC(C)C)NC(=O)[C@H](CC(N)=O)NC(=O)[C@H](Cc2c[nH]cn2)NC1=O [Example 17, Cyclo[Leu-His-Asn-Leu-NH—(CH2)6—CO-Thr-Glu-Arg-Cha-Ala]] (cyclo(ALHNL[Ahp]TER[Cha]))",> 6.00,
"CC[C@H](C)[C@@H]1NC(=O)[C@H](CCCNC(=N)N)NC(=O)[C@H](CCC(=O)O)NC(=O)[C@H]([C@@H](C)O)NC(=O)CCCCCCNC(=O)[C@H](CC(C)C)NC(=O)[C@H](CC(N)=O)NC(=O)[C@H](Cc2c[nH]cn2)NC(=O)[C@H](CC(C)C)NC(=O)[C@H](C)NC1=O [Example 18, Cyclo[Leu-His-Asn-Leu-NH—(CH2)6—CO-Thr-Glu-Arg-Ile-Ala]] (cyclo(ALHNL[Ahp]TERI))",5.00 to 6.00,
"CCC[C@@H]1NC(=O)[C@H](C)NC(=O)[C@H](CCSC)NC(=O)[C@H](CCCNC(=N)N)NC(=O)[C@H](CCC(=O)O)NC(=O)[C@H]([C@@H](C)O)NC(=O)CCCCCCNC(=O)[C@H](CC(C)C)NC(=O)[C@H](CC(N)=O)NC(=O)[C@H](Cc2c[nH]cn2)NC1=O [Example 19, Cyclo[Nva-His-Asn-Leu-NH—(CH2)6—CO-Thr-Glu-Arg-Met-Ala]] (cyclo(A[Nva]HNL[Ahp]TERM))",> 6.00,
"CSCC[C@@H]1NC(=O)[C@H](CCCNC(=N)N)NC(=O)[C@H](CCC(=O)O)NC(=O)[C@H]([C@@H](C)O)NC(=O)CCCCCCNC(=O)[C@H](CC(C)C)NC(=O)[C@H](CC(N)=O)NC(=O)[C@H](Cc2c[nH]cn2)NC(=O)[C@H](C2CCCCC2)NC(=O)[C@H](C)NC1=O [Example 20, Cyclo[Chg-His-Asn-Leu-NH—(CH2)6—CO-Thr-Glu-Arg-Met-Ala]] (cyclo(A[Chg]HNL[Ahp]TERM))",5.00 to 6.00,
"CSCC[C@@H]1NC(=O)[C@H](CCCNC(=N)N)NC(=O)[C@H](CCC(=O)O)NC(=O)[C@H](Cc2c[nH]cn2)NC(=O)CCCCCCNC(=O)[C@H](CC(C)C)NC(=O)[C@H](CC(N)=O)NC(=O)[C@H](Cc2c[nH]cn2)NC(=O)[C@H](CC(C)C)NC(=O)[C@H](C)NC1=O [Example 21, Cyclo[Leu-His-Asn-Leu-NH—(CH2)6—CO-His-Glu-Arg-Met-Ala]] (cyclo(ALHNL[Ahp]HERM))",5.00 to 6.00,
"CSCC[C@@H]1NC(=O)[C@H](CCCNC(=N)N)NC(=O)[C@H](CCC(=O)O)NC(=O)[C@H](CC(N)=O)NC(=O)CCCCCCNC(=O)[C@H](CC(C)C)NC(=O)[C@H](CC(N)=O)NC(=O)[C@H](Cc2c[nH]cn2)NC(=O)[C@H](CC(C)C)NC(=O)[C@H](C)NC1=O [Example 22, Cyclo[Leu-His-Asn-Leu-NH—(CH2)6—CO-Asn-Glu-Arg-Met-Ala]] (cyclo(ALHNL[Ahp]NERM))",> 6.00,
